Measured values reported in US6518271B1, “1H-imidazo[4,5-d]pyridazin-7-one, and corresponding thiones as corticotropin releasing factor (CRF) receptor ligands” (Bristol-Myers Squibb Company, priority 1998, dated 2003).

SMILES: CCC(C)C(CC)C1=NC2=C(c3ccc(Cl)cc3Cl)N=NC(=O)C2=N1 (stereo not shown) [Example 1, 4-(2,4-dichlorophenyl)-2-ethyl-1-(1-ethyl)propyl-imidazo[4,5-d]pyridazin-7-one]
- melting point: 246 to 247 °C
